Tested on: TC1 subcutaneous lung tumor
Experiment: co-treatment of ADAM9 inhibitor and checkpoint inhibitor, CD8+ T cells to TReg ratio in tumors
Assay type: in vivo, mice
Details: co-treated with anti-PDL1 antibody; vs vehicle, SW1 alone or anti-PDL1 antibody alone
Experimental: To further analyze whether the ADAM9 inhibitor and the checkpoint inhibitor have a synergistic effect, in the experiment, TC1 subcutaneous lung tumor mice were treated alone with the ADAM9 inhibitor (the compound SW1), the checkpoint inhibitor (anti-PDL1 antibody) or co-treated with the ADAM9 inhibitor (the compound SW1) and the checkpoint inhibitor (anti-PDL1 antibody), and the ratio of CD8^+ T cells and regulatory T cells (TReg) in tumors of TC1 subcutaneous lung tumor mice was analyzed. The experiment also included a control group treated with vehicle (DMSO).

SMILES: O=C1c2ccccc2C(=O)N1CCc1csc(Nc2nc(CCN3C(=O)c4ccccc4C3=O)cs2)n1 [SW1]
- ratio of CD8+ T cells to regulatory T cells (TReg) in tumors: increased significantly
